Data taken from publication PMC12426930, “Antioxidant, Hypotensive, and Antidiabetic Breakthroughs: Bromelain Hydrolysis Unlocks Quinoa’s Peptide Potential - In Silico and In Vitro Approach” (Journal of Agricultural and Food Chemistry, 2025).
Marks after values point to notes of the source that are not given here. One block for each substance: values may come before it.

Experiments:
[1] = ref Zheng et al. [24]; cited from earlier work
From the text: (§1) Yudho-Sutopo et al. reported the ACE-I inhibitory activity of four synthetic peptides from pearl garlic (DHSTAVW, KLAKVF, KLSTAASF, and KETPEAHVF). […] According to Yudho-Sutopo et al., the hydrophobic amino acid in the C-terminal and amino acids with a positively charged side-chain amino group, like in DHSTAVW, are determinants in the inhibition of ACE-I. Furthermore, a study by Zheng et al. reported an ACE-I inhibitory peptide – RGQVIYVL – from Chenopo ...

[2] = tested on: ACE-I; conditions: Chenopodium quinoa Willd peptide; ref Zheng et al. [24]; read-out: ACE-I inhibition IC50; cited from earlier work
From the text: as §1

[3] = tested on: α-amylase; conditions: ref Zhou et al. [70]; cited from earlier work
From the text: As α-amylase plays a significant role in T2DM, this study investigated the inhibitory effects of synthetic quinoa peptides on this enzyme.

[4] = tested on: porcine pancreatic α-amylase (PPA); assay: α-Amylase inhibition; type: biochemical; conditions: CNPG3 substrate, 405 nm, 37 °C, mean ± SD, n = 9
Experimental: α-Amylase inhibition activity was performed using the 3,5-dinitrosalicylic acid (DNS) assay according to Zulfiqar et al. […] Then, 50 μL of substrate (2-chloro-4-nitro-[…] (CNPG3) (2 mM)) was added per well. Finally, absorbance was recorded at 405 nm (SPARK-10M, TECAN, Switzerland) at 37 °C for 10 min in 1-min intervals. The percentage of enzyme inhibition was calculated in relation to 100% enzymatic activity in the negative control (phosphate-buffered saline (PBS) buffer, enzyme, and substrate).

[5] = tested on: rat intestinal acetone α-glucosidase; assay: α-Glucosidase inhibition; type: biochemical
Experimental: α-Glucosidase inhibition assay was measured following the method of Vilcacundo et al., with slightly modifications. First, 100 μL of sample ([…]), positive control (1 mM acarbose), and/or negative control (Milli-Q-water), were added to 50 μL of rat intestinal acetone α-glucosidase (1 U/mL in 0.1 M, maleate buffer pH 6.9), and the mixture was incubated at 37 °C for 5 min. Then, 50 μL of substrate (2 mM maltose) was added into each tube, which was performed in a Thermomixer (37 °C, 1000 rpm, for 30 min). Finally, the reaction was stopped at 100 °C for 5 min. The glucose concentration in the reaction was measured using GOPOD (glucose oxidase/peroxidase) from Megazyme, with absorbance measured at 560 nm (Gen5 software, version 1.1, BioTek Instruments, Winooski, VT, USA). The percentage of inhibition was calculated relative to the non-inhibited control (negative control).

[6] = tested on: human DPP-IV; assay: DPP-IV inhibitory activity; type: biochemical; conditions: H-Gly-Pro-pNA, 37 °C, mean ± SD, n = 9
Experimental: Dipeptidyl peptidase-IV (DPP-IV) inhibitory activity was measured following the method by Vilcacundo et al., with slightly modifications. […] For the negative control 70 μL of Tris Buffer was added. Finally, 100 μL of substrate (H-Gly-Pro-pNA, 100 mM) was added to all wells. The reaction was performed at 37 °C in the microplate reader (BioTek Instruments, Winooski, VT, USA), and the reaction was read at 405 nm for 30 min, with reading intervals of 2 min. Finally, data were plotted and fitted to a logarithmic regression to obtain dose–response curves.

[7] = Oxygen radical absorbance capacity (ORAC) assay; conditions: AAPH, fluorescein, 37 °C, 150 min
Experimental: Oxygen radical absorbance capacity (ORAC) assay was performed following the method of Carvalho-Oliveira et al. Briefly, 30 μL of peptide (different concentrations 50–1000 μM) or standard (Trolox at 0–160 μM) were placed in a black 96-well plate. The reaction mixture comprised 180 μL of fluorescein (116.9 nM) and 90 μL of 2,2’-azobis(2-amidinopropane) dihydrochloride (AAPH) (40 mM). Finally, the fluorescence was recorded every 2 min for 150 min at excitation and emission wavelengths of 485 and 520 nm, respectively. All reactions were performed at 37 °C. The results were expressed as μmol Trolox equivalent (TE)/μmol of peptide. Quantification and interpretation of the data were done by Gen5 software, version 1.1 (BioTek Instruments, Winooski, VT, USA).

[8] = Cu^2+ chelation assay; conditions: pyrocatechol violet, pH 6.0, 37 °C, 10 min, mean ± SD, n = 9
Experimental: Cu^2+ chelation assay was determined according to Sanchez-Velazquez et al., with slight modifications. Briefly, 21 μL of sample (synthetic peptides, […]) or positive control (EDTA, 0.1 μg/μL) was added to 185 μL of buffer (sodium acetate, 50 mM, pH 6.0), and then 15 μL of copper solution (10 μg) and 9 μL of pyrocatechol violet (2 mM) were added for the reaction. For the blank well, 205 μL of buffer was added to the copper and pyrocatechol violet reaction mixture. The reaction was incubated for 10 min at 37 °C and then read at 632 nm (SPARK-10M, TECAN, Switzerland). Cu^2+ chelating activity was calculated as: %Chelatingactivity=Abscontrol−Abssample/Abscontrol×100

[9] = Fe^2+ chelation assay; conditions: 125 μM; ferrozine, pH 4.9, 37 °C, 10 min; mean ± SD, n = 9
Experimental: Fe^2+ chelation assay was measured according to Sanchez-Velazquez et al. with slightly modifications. 25 μL of sample (synthetic peptides, […]) or positive control (EDTA, 0.1 μg/μL) was added to 225 μL of buffer (sodium acetate, 100 mM, pH 4.9), then 15 μL of iron solution (0.1%, w/v) and 9 μL of ferrozine (40 mM) were added to start the reaction. For the blank well, 250 μL of buffer was added to the iron solution and ferrozine. The reaction was incubated 10 min at 37 °C and then read at 562 nm (SPARK-10M, TECAN, Switzerland). Fe^2+ chelating activity was calculated as described previously for copper.

[10] = tested on: 15-LOX enzyme (soybean lipoxygenase); assay: Lipoxygenase inhibitor screening assay (LOX); type: biochemical; conditions: 31.25 μM; linoleic acid 1 mM, RT, 490 nm
Experimental: Lipoxygenase inhibitory activity assay (LOX) was determined following the manufacturer’s instructions (#760700). Thus, peptide concentrations (31.25–125 μM) were prepared with the assay buffer and tested in triplicate. First, 10 μL of the peptides at each concentration was mixed with 90 μL of 15-LOX enzyme (soybean lipoxygenase) in a 96-well plate. Then, three wells each contained assay buffer as blank (without enzyme), assay buffer as vehicle (with enzyme), and 15-LOX as positive control. Afterward, 10 μL of linoleic acid (1 mM) (substrate) was added to all wells and shaken for 10 min at RT. Finally, 100 μL of chromogen was added to all wells, and the plate was sealed and shaken for an additional 5 min at RT. The final reaction was measured at 490 nm, and the percentage of inhibition was calculated as. %inhibition=[1−Correctedvaluesofpeptide/Correctedvaluesofvehicle]×100

[11] = tested on: angiotensin I converting enzyme; assay: ACE-I inhibitory activity (fluorometric kit CS0002); type: biochemical; conditions: fluorometric kit, 37 °C, mean ± SD, n = 9
Experimental: ACE-I inhibitory assay was determined by ACE-I activity assay kit (fluorometric, CS0002). This assay is based on the hydrolysis of angiotensin I by ACE to yield angiotensin II. Briefly, all reagents were diluted in the assay buffer, and a total of 50 μL of peptide sample, positive control (captopril PHR1307), and assay buffer (blank) were added to a 96-well black plate. The standard was added at 0, 0.1, 0.2, 0.3, 0.4, 0.5, 0.6, and 0.8 nmol and adjusted to a final volume of 100 μL. […] Finally, fluorescence (λex, 320 nm; λem, 405 nm) was measured in five cycles for 5 min. Linear regressions were determined to calculate the enzymatic activity for each sample per concentration. Thus, one unit was defined as the amount of enzyme that releases 1 nmol of fluorescent substrate in 1 min at 37 °C. Finally, the inhibition (%) of each peptide and positive control was determined using regression analysis of the corresponding dose–response curves.

[12] = tested on: α-glucosidase; conditions: 250 μM; ref Vilcacundo et al. [40]; cited from earlier work
From the text: The inhibitory effects of quinoa-derived peptides (YDDER, NIYQIS, and QDQHQKIR) toward α-glucosidase are depicted in Table .

[13] = tested on: DPP-IV; design: method as in Vilcacundo et al. [40]; conditions: 250 μM; ref Vilcacundo et al. [40]; cited from earlier work

Substance: RGQVIYVL
hydrophobic residue content [1]: 62.50%
IC50 [2]: 38.2 µM

Substance: MMFPH [quinoa-derived peptide reported by Zhou et al]
α-amylase inhibition [3]: stronger α-amylase inhibition

α-amylase inhibition ([4]; 300 μM): 18.43 ± 0.33^a %
inhibition ([4]; 400 μM): 15.6 ± 0.34%
α-amylase inhibition ([4]; 500 μM): 15.37 ± 0.35^b %
LOX inhibition [10]: 8.44%
ACE-I inhibition ([11]; 125 μM): 6.8 ± 0.56^f %
inhibition ([11]; 250 μM): 9.75 ± 0.21%
Substance: QDQHQKIR [quinoa 11S globulin peptide, custom-synthesized by GenScript, purity 95%]
α-glucosidase inhibition ([5]; 300 μM, 2 mM maltose, pH 6.9, 37 °C, mean ± SD, n = 9): ND (no inhibitory effect was observed at the given concentration)
α-glucosidase inhibition ([5]; 400 μM, 2 mM maltose, pH 6.9, 37 °C, mean ± SD, n = 9): ND (no inhibitory effect was observed at the given concentration)
α-glucosidase inhibition ([5]; 500 μM, 2 mM maltose, pH 6.9, 37 °C, mean ± SD, n = 9): ND (no inhibitory effect was observed at the given concentration)
α-glucosidase inhibition ([5]; any of the tested concentrations (100–500 μM)): did not present any α-glucosidase inhibition
DPP-IV inhibition ([6]; 125 μM): ND (no inhibitory effect was observed at the given concentration)
DPP-IV inhibition ([6]; 250 μM): ND (no inhibitory effect was observed at the given concentration)
DPP-IV inhibition ([6]; 500 μM): 5.26 ± 0.30^c %
ORAC [7]: 0.02 μmol TE/μmol peptide
ORAC ([7]; mean ± SD, n = 9): 0.02 ± 0.00^c μM TE/μM Peptide
Cu^2+ chelating activity ([8]; 15.62 μM): 39.79 ± 1.4%
Cu^2+ chelating activity ([8]; 31.25 μM): 37.46 ± 0.26%
Cu^2+ chelating activity ([8]; 62.5 μM): 40.8 ± 0.31%
Fe^2+ chelating activity [9]: 5.11 ± 1.0%

Substance: IQEGGLT [quinoa-derived peptide reported by Vilcacundo et al]
α-glucosidase inhibition [12]: 55.85%

Substance: IQAQGGLT [DPP-IV quinoa-derived peptide reported by Vilcacundo et al]
DPP-IV inhibition [13]: 17.05%
